We go through 64 compounds from PubChem BioAssay AID720513 (Broad Institute, 2013).

Results filed as inconclusive are left out.

This test deals with U2OS PGC1a acetylation AlphaLISA, overnight. Kind of test: activators raising PGC1a acetylation in cells, dose response, cell-based, cherry-picked samples, set 6 (AID 720513).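 Further: cells made to overexpress flag tagged PGC1a plus GCN5 acetyltransferase by viral infection.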
Turning to `COc1ccccc1-c1ccc2c(c1)O[C@@H](CN(C)Cc1ccc3c(c1)OCO3)[C@@H](C)CN([C@@H](C)CO)S2(=O)=O`, the AC40 was 10.6 µM.

`COc1ccc2c(c1)C(C)=CC(C)(C)N2S(=O)(=O)c1ccc(Br)cc1`: the AC40 was 2.69 µM.

Regarding `COc1cc(CN2CC3(CCN(S(=O)(=O)c4cccs4)CC3)c3c(n(C)c4cc(OC)ccc34)[C@H]2CO)cc(OC)c1`, the AC40 was 14.3 µM.

`O=C1NC(=Nc2ccccc2Cl)S/C1=C\c1cccc([N+](=O)[O-])c1O`: the AC40 is 10.6 µM.

In the case of `Cc1cccc(Nc2nnc(-c3ccc(C(=O)N4C[C@H]5C[C@H](C4)c4cccc(=O)n4C5)cc3)c3ccccc23)c1`, the AC40 was 11.2 µM.

Regarding `C[C@@H]1CN([C@H](C)CO)C(=O)c2c(c3ccccc3n2C)-c2ccccc2CO[C@@H]1CN(C)C(=O)[C@H](C)c1ccccc1`, the AC40 was 3.36 µM.

`CN1CCN(C(=O)CSc2nc(-c3cccs3)cc(-c3cccs3)c2C#N)CC1`: the AC40 was 2.77 µM.

As for `C[C@@H]1CN([C@@H](C)CO)C(=O)c2c(c3ccccc3n2C)-c2ccccc2CO[C@@H]1CN(C)C(=O)Nc1cccc(C(F)(F)F)c1`, the AC40 was 10 µM.

Consider `Cc1cccc(C)c1-n1nnnc1C(c1ccccc1OC(F)(F)F)N1CCC(n2c(=O)[nH]c3ccccc32)CC1` (centres undefined), for which the AC40 was 3.94 µM.

As to `COc1ccc(C(c2nnnn2C2CCCCC2)N2CCC3(CC2)C(=O)NCN3c2ccccc2)cc1` (centres undefined), the AC40 is 3.46 µM.

On to `CCN(CC)CCOc1ccc(/C(=C(\Cl)c2ccccc2)c2ccccc2)cc1`, for which the AC40 is 3.01 µM.

Consider `O=C(NCc1ccco1)c1scc2c1OCCO2`, for which the AC40 was 12.3 µM.

As for `O=C(Nc1ccc(F)cc1)N1CCN(c2nc3ccccc3s2)CC1`, the AC40 is 2.7 µM.

On to `COc1ccccc1NC(=O)c1ccc(NC(=O)CNC(=O)c2ccc(OC)c(OC)c2)cc1`, for which the AC40 is 15.7 µM.

As for `CC1CC1C(=O)OCC(=O)NCc1ccc(Cl)cc1` (centres undefined), the AC40 is 18.2 µM.

For `COc1ccc(CCC(=O)NCCS(=O)(=O)N2CCN(c3ccccc3)CC2)cc1`, the AC40 was 13.4 µM.

`C[C@@H]1CN([C@@H](C)CO)C(=O)c2c(c3ccccc3n2C)-c2ccccc2CO[C@@H]1CN(C)C(=O)Nc1ccc(F)cc1`: the AC40 was 7.76 µM.

Consider `COc1cc(CNC(=O)c2cc(-c3cc(C)cc(F)c3)n[nH]2)cc(OC)c1`, for which the AC40 is 15.8 µM.

For the compound `COc1ccc(C(c2nnnn2C2CCCC2)N2CCC(C)CC2)c(OC)c1` (centres undefined), the AC40 is 1.86 µM.

Take `Cc1ccc(-c2nnc(Nc3ccc4c(c3)OCO4)c3ccccc23)cc1S(=O)(=O)NCCO`: the AC40 was 2.08 µM.

Take `CC(=O)c1cccc(N(C(=O)c2cnccn2)C(C(=O)NCc2ccccc2)c2ccco2)c1` (centres undefined): the AC40 is 1.39 µM.

With `COc1cc2nc(SCc3c(C)noc3C)n(CCC3=CCCCC3)c(=O)c2cc1OC`, the AC40 was 2.51 µM.

Regarding `c1coc(CN(Cc2cccs2)Cc2nnnn2C2CCCCC2)c1`, the AC40 is 2.52 µM.

Consider `COc1ccc(-c2csc3nc(C)nc(N4CCC(C)CC4)c23)cc1OC`, for which the AC40 was 3.8 µM.

Consider `COc1cccc(S(=O)(=O)N(C)C[C@@H]2Oc3cc(C4=CCCC4)ccc3S(=O)(=O)N([C@H](C)CO)C[C@@H]2C)c1`, for which the AC40 is 13 µM.

For `Cc1cc(C)c2c(-n3cccc3)c(C(=O)NNS(=O)(=O)c3ccc(F)cc3)sc2n1`, the AC40 is 5.62 µM.

For `CCOC(=O)N1CCN(C(=O)C(NS(=O)(=O)c2cccc3nsnc23)c2ccccc2)CC1` (centres undefined), the AC40 is 17.9 µM.

For the compound `CCOC(=O)c1ccc(NC(=O)N2CCc3ccccc3C2)cc1`, the AC40 is 0.478 µM.

On to `CCOc1ccccc1NC(=O)CSc1cn[nH]n1`, for which the AC40 was 2.47 µM.

Regarding `O=C(NCc1ccccc1)N1CCC(n2cnc3cc(F)ccc32)CC1`, the AC40 is 1.89 µM.

Take `CN1CCN(c2ccc(CNC(=O)c3ccc(-c4ccnn4C)c4ccoc34)cc2)CC1`: the AC40 was 9.27 µM.

`C[C@@H]1CN([C@H](C)CO)C(=O)c2c(c3ccccc3n2C)-c2ccccc2CO[C@@H]1CN(C)C(=O)Nc1ccccc1C(F)(F)F`: the AC40 is 3.71 µM.

Take `O=C(c1ccccc1Nc1ccc(SC(F)F)cc1)N1CCCCCC1`: the AC40 was 10.3 µM.

Consider `Cn1ncc(Cl)c1C(=O)Nc1sc2c(c1C(N)=O)CCC2`, for which the AC40 is 5.65 µM.

For `CC(C)NC(=O)N(C)C[C@H]1OCCCC[C@@H](C)Oc2ccc(NC(=O)Cc3ccccc3)cc2C(=O)N([C@@H](C)CO)C[C@H]1C`, the AC40 was 16.4 µM.

In the case of `O=C(Cc1ccccc1)Nc1ccc(NC(=O)c2cccs2)cc1`, the AC40 is 1.23 µM.

`COC(=O)c1cc2ccsc2n1CC(=O)Nc1cc(Cl)ccc1OC`: the AC40 was 7.88 µM.

As to `CCOC(=O)c1ccc(NC(=O)Nc2ccc(F)cc2)cc1`, the AC40 is 16.2 µM.

On to `O=C1NCN(c2ccccc2)C12CCN(C(c1cccc3ccccc13)c1nnnn1C1CCCCC1)CC2` (centres undefined), for which the AC40 was 5.43 µM.

As to `O=C(C1CCC1)N1CCN(S(=O)(=O)c2ccccc2)CC1`, the AC40 was 2.24 µM.

As to `COc1ccc(-c2c(-c3cc(OC)cc(OC)c3)n(C)c3ccc(-c4cnc(N)nc4)cc23)cc1`, the AC40 was 0.974 µM.

In the case of `COc1ccc(NC(=O)CSC2CC(=O)N(c3ccc4c(c3)OCCO4)C2=O)cc1` (centres undefined), the AC40 was 16.5 µM.

Consider `CCCOc1ccc(C(=O)Nc2cccnc2)cc1`, for which the AC40 is 2.52 µM.

Turning to `O=C(NCc1cccs1)c1ccc(Cl)c(S(=O)(=O)N2CCCC2)c1`, the AC40 was 3.54 µM.

For `COc1ccc(C(=O)NN(C)c2nc(-c3ccccc3)cc(C)c2S(C)(=O)=O)cc1`, the AC40 is 19 µM.

Turning to `CCO[C@H]1OC(C(=O)N2CCCCCCC2)=C[C@@H](C2CCCCC2)[C@@H]1CCCO`, the AC40 is 1.96 µM.

For `CC(C)c1ccc(NC(=O)c2ccc3c(c2)CCN3S(C)(=O)=O)cc1`, the AC40 was 13.9 µM.

As for `O=S(=O)(NCc1ccccc1Br)c1ccccc1Br`, the AC40 is 1.68 µM.

For the compound `CN1Cc2c(N3CCOCC3)nc3sc(C(=O)c4ccc(Br)cc4)c(N)c3c2CC1(C)C`, the AC40 is 0.996 µM.

Consider `C[C@@H]1CN([C@H](C)CO)C(=O)c2cccc(NC(=O)c3ccc(-c4nccs4)cc3)c2O[C@@H]1CN(C)Cc1ccc(C(=O)Nc2ccccc2N)cc1`, for which the AC40 was less than 0.16 µM.

With `CC(=O)c1ccc(N2CCN(c3ccc(S(=O)(=O)NCCCN(C)C)cc3[N+](=O)[O-])CC2)cc1`, the AC40 was 1.22 µM.

`Cc1ccc(CN(CC(O)COc2cccc3[nH]cc(C)c23)C(C)(C)C)cc1` (centres undefined): the AC40 is 2.49 µM.

In the case of `CCCCN=C1NC(=O)C(CC(=O)Nc2ccc(Cl)cc2)S1` (centres undefined), the AC40 is 3.53 µM.

Regarding `O=C(CN1CCC(N2CCCCC2)CC1)N1CCCc2ccccc21`, the AC40 is 11.1 µM.

For the compound `COc1cc2cc(-c3ccc(O)cc3O)nc(C)c2cc1OC`, the AC40 is 19.3 µM.

Consider `COc1ccc(CNc2ccc(-c3ccc(OC)cc3)nn2)cc1`, for which the AC40 is 1.47 µM.

As for `Cn1cc(-c2ccc(C(=O)NCc3cccc(Cl)c3)c3occc23)cn1`, the AC40 is 4.85 µM.

For `COc1ccc(CN(CCC(C)C)S(=O)(=O)c2ccccc2Br)cc1`, the AC40 is 2.04 µM.

`CSc1nc(NCc2ccco2)c2ccccc2n1`: the AC40 was 13.6 µM.

In the case of `COc1ccc(S(=O)(=O)NNC(=O)c2csc(-n3nc(C)cc3C(F)(F)F)n2)cc1`, the AC40 is 7.43 µM.

On to `CC(C)(C)c1ccc(C(=O)Nc2ccc(C(=O)NCc3cccnc3)cc2)cc1`, for which the AC40 is less than 0.16 µM.

On to `O=C(Nc1ccc(-c2noc(CCc3ccccc3)n2)cc1)c1cccnc1`, for which the AC40 is 0.346 µM.

In the case of `N#C/C(=C(/O)c1ccco1)c1nc2ccccc2[nH]1`, the AC40 was 0.841 µM.

In the case of `COc1cc(-c2nnn(CC#N)n2)ccc1OCc1ccccc1`, the AC40 is 0.296 µM.
